Experimental data from patent publication EP0288647B1, “Derivatives of 5-[2-(1-pyrrolidinyl)ethoxy]-p-cymene, process for their preparation, and medicaments containing these derivatives” (INSTITUT DE RECHERCHES CHIMIQUES ET BIOLOGIQUES APPLIQUEES …, priority 1987, dated 1988).

Test system: not listed separately
Test: Acute toxicity, lethal dose 50 after oral and intravenous administration
Assay type: in vivo, souris
Details: mouse, intravenous administration
From the text: Les doses létales 50 suivantes ont été obtenues après administration orale (P.O.) et intraveineuse (I.V.) des substances chez la souris.
Les résultats obtenus sont consignés dans le tableau I. TABLEAU I

| Structure (SMILES) | DL 50 I.V. |
| --- | --- |
| Cc1ccc(C(C)C)c(OCCN2CCCC2)c1.Cl [B 1007, chlorhydrate du [(pyrrolidinyl-1)-2-éthoxy]-3 p-cymène] | 75 mg/kg⁻¹ |
| CC(=O)Oc1cc(C(C)C)c(OCCN2CCCC2)cc1C.Cl [B 1024, chlorhydratede l'acétoxy-2[(pyrrolidinyl-1)-2-éthoxy]-5 p-cymène] | 18 mg/kg⁻¹ |
| Cc1cc(OCCN2CCCC2)c(C(C)C)cc1O.Cl [B 1058, chlorhydratede l'hydroxy-2[(pyrrolidinyl-1)-2-éthoxy]-5 p-cymène] | 17 mg/kg⁻¹ |
| CC(=O)Oc1cc(C(C)C)c(OCCN(C)C)cc1C [Thymoxamine, reference compound] | 72,5 mg/kg⁻¹ |

Same assay, conditions: mouse, oral administration

| Structure (SMILES) | DL 50 P.O. |
| --- | --- |
| Cc1ccc(C(C)C)c(OCCN2CCCC2)c1.Cl [B 1007, chlorhydrate du [(pyrrolidinyl-1)-2-éthoxy]-3 p-cymène] | 330 mg/kg⁻¹ |
| CC(=O)Oc1cc(C(C)C)c(OCCN2CCCC2)cc1C.Cl [B 1024, chlorhydratede l'acétoxy-2[(pyrrolidinyl-1)-2-éthoxy]-5 p-cymène] | 100 mg/kg⁻¹ |
| Cc1cc(OCCN2CCCC2)c(C(C)C)cc1O.Cl [B 1058, chlorhydratede l'hydroxy-2[(pyrrolidinyl-1)-2-éthoxy]-5 p-cymène] | 80 mg/kg⁻¹ |
| CCCC(=O)Oc1cc(C(C)C)c(OCCN2CCCC2)cc1C.Cl [B 1132, chlorhydrate du butyryloxy-2[(pyrrolidinyl1)-2-éthoxy]-5 p-cymène] | ≃ 500 mg/kg⁻¹ |
| CC(=O)Oc1cc(C(C)C)c(OCCN(C)C)cc1C [Thymoxamine, reference compound] | 300 mg/kg⁻¹ |

Test system: canal déférent isolé du rat
Test: In vitro α-adrenolytic activity: antagonism of noradrenaline contractions of isolated rat vas deferens
Assay type: cell-based
Details: not given
From the text: (§1) Elle a été étudiée sur le canal déférent du rat et sur l'urètre du lapin.
(§2) La noradrénaline provoque des contractions du canal déférent isolé du rat et de l'urètre isolé du lapin. La présence dans le bain de l'organe de substances α-bloquantes antagonise ces contractions : l'utilisation de concentrations croissantes de substances α-bloquantes permet de calculer : • la pA₂ des composés sur le canal déférent du rat; la pA₂ étant le logarithme changé de signe de la concentration molaire du produit en présence de laquelle il faut multiplier par deux la concentration de noradrénaline pour obtenir le même effet qu'en l'absence du produit; • la pD'₂ des composés sur l'urètre du lapin; la pd'₂ étant le logarithme changé de signe de la concentration molaire du produit en présence de laquelle l'activité contracturante de la noradrénaline est divisée par deux.

| Structure (SMILES) | Action α-bloquante vis-à-vis de la noradrénaline sur canal déférent isolé pA₂ |
| --- | --- |
| Cc1ccc(C(C)C)c(OCCN2CCCC2)c1.Cl [B 1007, chlorhydrate du [(pyrrolidinyl-1)-2-éthoxy]-3 p-cymène] | 6,74 |
| CC(=O)Oc1cc(C(C)C)c(OCCN2CCCC2)cc1C.Cl [B 1024, chlorhydratede l'acétoxy-2[(pyrrolidinyl-1)-2-éthoxy]-5 p-cymène] | 6,98 |
| Cc1cc(OCCN2CCCC2)c(C(C)C)cc1O.Cl [B 1058, chlorhydratede l'hydroxy-2[(pyrrolidinyl-1)-2-éthoxy]-5 p-cymène] | 7,18 |
| CCCC(=O)Oc1cc(C(C)C)c(OCCN2CCCC2)cc1C.Cl [B 1132, chlorhydrate du butyryloxy-2[(pyrrolidinyl1)-2-éthoxy]-5 p-cymène] | 7,35 |
| CC(=O)Oc1cc(C(C)C)c(OCCN(C)C)cc1C [Thymoxamine, reference compound] | 7,25 |

Test system: pressions artérielle et urétrale
Test: In vivo α-blocking activity at urethral and vascular level: noradrenaline-induced rise of arterial and urethral pressure in the anaesthetised rabbit
Design: species or system lapin
Details: product i.v.
From the text: L'activité α-bloquante "in vivo" aux niveaux urétral et vasculaire chez le lapin anesthésié a été recherchée par administration intraveineuse des produits B 1007, B 1024, B 1058, B 1125 et B 1134.
L'injection intraveineuse de noradrénaline provoque chez le lapin une augmentation dose dépendante des pressions artérielle et urétrale. Les substances α-bloquantes injectées par voie intraveineuse antagonisent en fonction des doses ces augmentations de pression. On calcule la dose inhibitrice 50 % (D.I. 50) définie comme étant la dose de produit provoquant une diminution de 50 % des effets de la noradrénaline sur les pressions artérielle et urétrale.

| Structure (SMILES) | D.I. 50 vis-à-vis de l'hypertension artérielle | D.I. 50 vis-à-vis de l'hypertension urétrale |
| --- | --- | --- |
| Cc1ccc(C(C)C)c(OCCN2CCCC2)c1.Cl [B 1007, chlorhydrate du [(pyrrolidinyl-1)-2-éthoxy]-3 p-cymène] | 7,63 mg/kg⁻¹ | 0,34 mg/kg⁻¹ |
| CC(=O)Oc1cc(C(C)C)c(OCCN2CCCC2)cc1C.Cl [B 1024, chlorhydratede l'acétoxy-2[(pyrrolidinyl-1)-2-éthoxy]-5 p-cymène] | 4,14 mg/kg⁻¹ | 0,23 mg/kg⁻¹ |
| Cc1cc(OCCN2CCCC2)c(C(C)C)cc1O.Cl [B 1058, chlorhydratede l'hydroxy-2[(pyrrolidinyl-1)-2-éthoxy]-5 p-cymène] | 1,22 mg/kg⁻¹ | 0,13 mg/kg⁻¹ |
| CC(=O)Oc1cc(C(C)C)c(OCCN(C)C)cc1C [Thymoxamine, reference compound] | 2,72 mg/kg⁻¹ | 0,5 mg/kg⁻¹ |

Test system: toxicité de la noradrénaline
Test: In vivo adrenolytic activity: protection against death caused by i.v. noradrenaline
Details: rat, 25 mg/kg⁻¹ p.o., 30 min before noradrenaline 0,4 mg/kg⁻¹ I.V.
Description: La noradrénaline injectée à fortes doses par voie intraveineuse provoque la mort de 100 % des animaux dans les 15 minutes qui suivent son injection. La mort survient par oedème pulmonaire dû à l'hypertension artérielle induite par la stimulation des récepteurs adrénergiques. L'administration préalable de substances α-adrénolytiques par voie orale permet de réduire la toxicité de la noradrénaline. Les produits sont administrés par voie orale à des temps variables entre 30 minutes et 6 heures avant l'injection intraveineuse (I.V.) de noradrénaline (0,4 mg/kg⁻¹).

| Structure (SMILES) | % de protection contre la mort [%] |
| --- | --- |
| CC(=O)Oc1cc(C(C)C)c(OCCN2CCCC2)cc1C.Cl [B 1024, chlorhydratede l'acétoxy-2[(pyrrolidinyl-1)-2-éthoxy]-5 p-cymène] | 70 |

Same assay, conditions: rat, 50 mg/kg⁻¹ p.o., 30 min before noradrenaline 0,4 mg/kg⁻¹ I.V.

| Structure (SMILES) | % de protection contre la mort [%] |
| --- | --- |
| Cc1ccc(C(C)C)c(OCCN2CCCC2)c1.Cl [B 1007, chlorhydrate du [(pyrrolidinyl-1)-2-éthoxy]-3 p-cymène] | 60 |
| Cc1cc(OCCN2CCCC2)c(C(C)C)cc1O.Cl [B 1058, chlorhydratede l'hydroxy-2[(pyrrolidinyl-1)-2-éthoxy]-5 p-cymène] | 90 |
| CCCC(=O)Oc1cc(C(C)C)c(OCCN2CCCC2)cc1C.Cl [B 1132, chlorhydrate du butyryloxy-2[(pyrrolidinyl1)-2-éthoxy]-5 p-cymène] | 90 |
| CC(=O)Oc1cc(C(C)C)c(OCCN(C)C)cc1C [Thymoxamine, reference compound] | 80 |

Test system: urètre isolé du lapin
Test: In vitro α-adrenolytic activity: antagonism of noradrenaline contractions of isolated rabbit urethra
Assay type: cell-based
Details: not given
From the text: as §1, §2

| Structure (SMILES) | Action α-bloquante vis-à-vis de la noradrénaline sur urètre isolé pD'₂ |
| --- | --- |
| Cc1ccc(C(C)C)c(OCCN2CCCC2)c1.Cl [B 1007, chlorhydrate du [(pyrrolidinyl-1)-2-éthoxy]-3 p-cymène] | 6,88 |
| CC(=O)Oc1cc(C(C)C)c(OCCN2CCCC2)cc1C.Cl [B 1024, chlorhydratede l'acétoxy-2[(pyrrolidinyl-1)-2-éthoxy]-5 p-cymène] | 6,38 |
| Cc1cc(OCCN2CCCC2)c(C(C)C)cc1O.Cl [B 1058, chlorhydratede l'hydroxy-2[(pyrrolidinyl-1)-2-éthoxy]-5 p-cymène] | 6,69 |
| CCCC(=O)Oc1cc(C(C)C)c(OCCN2CCCC2)cc1C.Cl [B 1132, chlorhydrate du butyryloxy-2[(pyrrolidinyl1)-2-éthoxy]-5 p-cymène] | 6,0 |
| CC(=O)Oc1cc(C(C)C)c(OCCN(C)C)cc1C [Thymoxamine, reference compound] | 7,03 |

Test system: hyperpression urétrale neurogène et pression artérielle
Test: Urethral specificity in the anaesthetised dog: neurogenic urethral hyperpressure (hypogastric nerve stimulation) and arterial pressure
Assay type: in vivo, chien
Details: product i.v., dose causing 20 % arterial hypotension
From the text: L'effet des produits B 1007, B 1024, B 1125 et B 1134, injectés par voie intraveineuse sur l'hyperpression urétrale neurogène et sur la pression artérielle, a été recherché chez le chien anesthésié.
La stimulation électrique du nerf hypogastrique provoque une augmentation de la pression urétrale par libération de noradrénaline à partir des fibres sympathiques du nerf.
Les substances α-bloquantes antagonisent en fonction des doses ces augmentations de pression urétrale et provoquent une hypotension artérielle par action bloquante au niveau des récepteurs vasculaires.
On calcule la dose qui inhibe de 50 % (DI. 50) les effets de la stimulation du nerf hypogastrique sur la pression urétrale et la dose qui provoque une hypotension artérielle de 20 % (DE. 20).

| Structure (SMILES) | Hypotension artérielle DE. 20 |
| --- | --- |
| Cc1ccc(C(C)C)c(OCCN2CCCC2)c1.Cl [B 1007, chlorhydrate du [(pyrrolidinyl-1)-2-éthoxy]-3 p-cymène] | 2 mg/kg⁻¹ |
| CC(=O)Oc1cc(C(C)C)c(OCCN2CCCC2)cc1C.Cl [B 1024, chlorhydratede l'acétoxy-2[(pyrrolidinyl-1)-2-éthoxy]-5 p-cymène] | 8 mg/kg⁻¹ |
| CC(=O)Oc1cc(C(C)C)c(OCCN(C)C)cc1C [Thymoxamine, reference compound] | 0,27 mg/kg⁻¹ |

Same assay, conditions: product i.v., electrical stimulation of the hypogastric nerve

| Structure (SMILES) | Hyperpression urétrale neurogène DI. 50 |
| --- | --- |
| Cc1ccc(C(C)C)c(OCCN2CCCC2)c1.Cl [B 1007, chlorhydrate du [(pyrrolidinyl-1)-2-éthoxy]-3 p-cymène] | 0,35 mg/kg⁻¹ |
| CC(=O)Oc1cc(C(C)C)c(OCCN2CCCC2)cc1C.Cl [B 1024, chlorhydratede l'acétoxy-2[(pyrrolidinyl-1)-2-éthoxy]-5 p-cymène] | 0,07 mg/kg⁻¹ |
| CC(=O)Oc1cc(C(C)C)c(OCCN(C)C)cc1C [Thymoxamine, reference compound] | 0,09 mg/kg⁻¹ |
